The subject of the test is cellulase C. The note with it: PHMB present in lyophilized cellulose film with cellulase C.

Protocol: Two test materials (A and B) were prepared. Material A is a lyophilized cellulose film with cellulase C, and material B is a lyophilized cellulose film with cellulase C plus antiseptic Polyhexamethylene Biguanide (PHMB). Lyophilized cellulose samples A and B were incubated under conditions 1 and 2 for one month. Using media of tryptic soy agar, the samples were put in the solution to perform enzymatic degradation. On the 2nd, 8th, and 14th day, the degrading solution was taken out and plated on the agar media. The agar media plates were incubated for one month according to condition 3.

Polyhexamethylene Biguanide [PHMB]: the “reduction in cellulase enzyme activity” value is “no observable reduction in cellulase enzyme activity”.

The record behind these values is patent US20100172889A1, “DEGRADABLE BIOMOLECULE COMPOSITIONS” (priority 2008, published 2010).
